Format in all cases: in vivo
The test system of assay [1] is C57B1/6J mice. Kind of assay: Observation of mice activity: methylphenidate-induced hyperactivity (Example 1). Conditions: male mice, IP, methylphenidate 10 mg/kg, levodopa 17 mg/kg, 5 minutes session 15 minutes after treatment, Mean ± SEM, n=6; for horizontal activity: line crossings; for vertical activity: rearing or climbing. The protocol: • Species / Strain: Mice / C57B1/6J • Gender / Number / Age: Male / 24 / 8 weeks at study initiation • Source: Janvier Labs, France
The Test items and vehicle were administered via intraperitoneal injections according to Table 2. Table 2 - Study design
(§1) Mice were subj ected to a behavioral test to evaluate their activity 15 minutes after treatment administration (5 minutes session). Mice were acclimated to the surrounding for 15 minutes before the beginning of the test. At the appropriate time after treatment administration, mice (1 per cage) were placed in the middle of a polyethylene cage measuring 17 × 32 × 14 cm without stainless steel top grill (no access to food or drinking water), without bedding and with a line drawn at the bottom of the cage. Activity was then monitored during 5 minutes session at 15 minutes after treatment administration, measuring different parameters: • Horizontal activity: the number of times the mice crossed the line drawn at the bottom of the cage during the session was recorded to assess horizontal activity levels. • Vertical activity: the number of rearing or climbing was recorded to assess vertical activity levels.

Assay [2] relates to C57B1/6J mice. Kind of assay: Behavioral sensitization test for methylphenidate addiction/dependence (Example 4). Conditions: methylphenidate 10 mg/kg, Mean ± SEM; for locomotor activity (total distance travelled) / horizontal activity: female and male mice, IP, levodopa/carbidopa 17/1.7 mg/kg; for locomotor activity (total distance travelled): 20 minutes session; for horizontal activity: line crossings. The protocol: • Species / Strain: Mice / C57B1/6J • Gender / Number / Age: Male / 30 / 9 weeks at study initiation and Female / 35 / 9 weeks at study initiation • Source: Janvier Labs, France
The Test items and vehicle were administered via intraperitoneal injections according to Table 5. Table 5 - Study design
Mice were subjected to a behavioral test to evaluate their activity after treatment or vehicle administration. Mice (1 per cage) were placed in the center of a polyethylene cage without stainless steel top grill (no access to food or drinking water), without bedding and with a line drawn at the bottom of the cage. First, mice were acclimated to the surrounding and video-recorded for 10 minutes before the beginning of the test to analyse the baseline motor activity (total distance travelled). Second, mice were injected with test item or vehicle and acclimated for another 5 minutes and activity was again monitored and video recorded during a 20 minutes session. The 10 minutes video containing basal activity and the 20 minutes video after treatment administration were analysed using the ezTracker-master software. Horizontal activity was also measured. It represents the number of times the mice crossed the line drawn at the bottom of the cage. Animals are submitted to 6 sessions (3 sessions/week on Monday, Wednesday and Friday). During session 1, all mice receive an administration of vehicle. During sessions 2-5, groups 1F/1M receive an injection of vehicle; groups 2F/2M receive methylphenidate injection, groups 3F/3M receive levodopa/carbidopa injection and groups 4F/4M receive levodopa/carbidopa and methylphenidate injections. And during session 6, all mice receive an administration of methylphenidate.

The subject of assay [3] is C57B1/6J mice. Kind of assay: Hyperactivity and behavioral sensitization induced by methylphenidate: distance travelled in drug sessions (Example 3). Conditions: male mice, IP; methylphenidate 3 mg/kg, levodopa (carbidopa) 8,5(0,85) or 17(1,7) mg/kg; four 30 minutes drug sessions; n=9. The protocol: • Species / Strain: Mice / C57B1/6J • Gender / Number / Age: Male / 36 / 6-8 weeks at study initiation • Source: Janvier Labs, France
The Test items and vehicle were administered via intraperitoneal injections according to Table 4. Table 4 - Study design
Mice were subj ected to a behavioral test to evaluate their activity 30 minutes after treatment administration. Mice received an administration of vehicle and were placed in the apparatus (20 cm wide, 40 cm large, 40 cm high) for the habituation session (30 minutes). After, 4 drug sessions were performed on days 2, 4, 8 and 10 or on days 3, 5, 9 and 11. Mice were injected with one of the tested drugs (or vehicle) immediately before being placed in the box. Mice activity was then monitored during 30 minutes session after treatment administration, measuring: distance travelled in the compartment in the four sessions.

Assay [4] relates to C57B1/6J mice. Kind of assay: Observation of mice activity: methylphenidate-induced hyperactivity, levodopa/carbidopa (Example 2). Conditions: male mice, IP, methylphenidate 20 mg/kg, levodopa (carbidopa) 17(1,7) mg/kg, 5 minutes session 15 minutes after treatment, Mean ± SEM, n=6. As for the experimental part:
• Species / Strain: Mice / C57B1/6J • Gender / Number / Age: Male / 24 / 9 weeks at study initiation • Source: Janvier Labs, France
The Test items and vehicle were administered via intraperitoneal injections according to Table 3. Table 3 - Study design
as §1

The mark [5] stands for this setting: day 3, development of behavioral sensitization.
Where [6] appears, read: day 10, development of behavioral sensitization.

The results in this text go back to patent EP4316482A1, “LEVODOPA FOR PREVENTING ADDICTION” (4P-Pharma, priority 2022, dated 2024).

`N[C@@H](Cc1ccc(O)c(O)c1)C(=O)O` [levodopa, L-3,4-dihydroxyphenylalanine]: in the assay on C57B1/6J mice [1], the horizontal activity worked out at 17±4 counts and the vertical activity was found to be 24±7 counts.

Take `COC(=O)C(c1ccccc1)C1CCCCN1` (stereo not drawn) [methylphenidate, Methylphenidate]: the horizontal activity in the assay on C57B1/6J mice [1] is 49±11 counts; in the assay on C57B1/6J mice [2] (setting [5]) it was 259,69±115,51 counts; with C57B1/6J mice [2] (setting [6]) it was 420,38±137,05 counts; in the assay with C57B1/6J mice [4] (line crossings), 62±24 counts. For the same compound, the vertical activity in the assay on C57B1/6J mice [1] came to 42±16 counts; in the assay on C57B1/6J mice [4] (rearing or climbing), 59±10 counts. Also, the “locomotor activity (total distance travelled)” value in the assay on C57B1/6J mice [2] (setting [5]) is recorded as 127,39±38,76 meters; in the assay with C57B1/6J mice [2] (setting [6]) it was 185,70±41,44 meters. In addition, the “locomotor activity before treatment administration (baseline motor activity)” value in the assay on C57B1/6J mice [2] (experimental day 12, 10 minutes baseline session before injection, after chronic treatment, levodopa/carbidopa 17/1.7 mg/kg IP) was 28,35±7,43 meters. Also, the “distance travelled during drug sessions” value in the assay with C57B1/6J mice [3] is reported as “increased the distance travelled during drug sessions compared to vehicle-treated group”.
